For the assay, the target named is recombinant human Cathepsin S (Homo sapiens, UniProt P25774). Description: Cathepsin S assay: inhibition of recombinant human cathepsin S, fluorogenic substrate Z-Val-Val-Arg-AMC. The assay is classed as biochemical. The method, then: Cathepsin S Assay Procedure
To a 384 well microtitre plate is added 10 μl of a 100 μM solution of test compound in assay buffer (110 mM sodium acetate pH5.5, 5 mM EDTA, 5 mM dithiothreitol) with 10% dimethylsulfoxide (DMSO), plus 20 μl of 250 μM solution of the substrate
Z-Val-Val-Arg-AMC (7-amido-coumarine derivative of the tripeptide N-benzyloxycarbonyl-Val-Val-Arg-OH) in assay buffer and 45 μl of assay buffer. 25 μl of a 2 mg/l solution of activated recombinant human cathepsin S, in assay buffer, is then added to the well, yielding a final inhibitor concentration of 10 μM. Enzyme activity is determined by measuring the fluorescence of the liberated aminomethylcoumarin at […] using 390 nm excitation, at 20 minutes. Percentage enzyme activity is calculated by comparison of this activity to that of a solution containing no inhibitor.

The IC50 is the point on the concentration scale where inhibition reaches its midpoint.

Sequence of recombinant human Cathepsin S (P25774 115-331): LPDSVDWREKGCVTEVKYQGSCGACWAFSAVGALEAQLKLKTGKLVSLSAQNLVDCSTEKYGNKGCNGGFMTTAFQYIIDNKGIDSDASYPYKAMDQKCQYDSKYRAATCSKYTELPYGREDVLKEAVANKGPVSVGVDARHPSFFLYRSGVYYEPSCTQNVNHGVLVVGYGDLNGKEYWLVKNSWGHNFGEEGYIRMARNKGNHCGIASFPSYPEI

Turning to `Cn1cnc2c(C#N)nc(-c3ccc(OCCCO)c(C(F)(F)F)c3)cc21` [Example 1], the 50% inhibitory concentration (IC50) was less than 100 nM.
For `CN(C)CCCOc1ccc(-c2cc3c(ncn3C)c(C#N)n2)cc1C(F)(F)F` [Example 2a, 6-[4-(3-Dimethylaminopropoxy)-3-(trifluoromethyl)-phenyl]-1-methyl-1H-imidazo[4,5-g]pyridine-4-carbonitrile] the value was less than 100 nM; for `Cn1cnc2c(C#N)nc(-c3ccc(OCCCN4CCCC4)c(C(F)(F)F)c3)cc21` [Example 2c, 1-Methyl-6-[4-(3-pyrrolidin-1-ylpropoxy)-3-(trifluoromethyl)-phenyl]-1H-imidazo[4,5-c]pyridine-4-carbonitrile], less than 100 nM.
Then `CCN(CC)CCCOc1ccc(-c2cc3c(ncn3C)c(C#N)n2)cc1C(F)(F)F` [Example 2u, 6-[4-(3-N,N-Diethylamino-propoxy)-3-(trifluoromethyl)-phenyl]-1-methyl-1H-imidazo[4,5-d]pyridine-4-carbonitrile], with less than 100 nM; and `CN1CCN(CCCOc2ccc(-c3cc4c(ncn4C)c(C#N)n3)cc2C(F)(F)F)CC1(C)C` [Example 4a, 1-Methyl-6-{3-(trifluoromethyl)-4-[3-(3,3,4-trimethylpiperazin-1-yl)-propoxy]-phenyl}-1H-imidazo[4,5-c]pyridine-4-carbonitrile], with less than 100 nM.
Then `Cn1cnc2c(C#N)nc(-c3ccc(OCCCN4CCNC(C)(C)C4)c(C(F)(F)F)c3)cc21` [Example 4b, 6-{4-[3-(3,3-Dimethylpiperazin-1-yl)-propoxy]-3-(trifluoromethyl)-phenyl}-1-methyl-1H-imidazo[4,5-c]pyridine-4-carbonitrile], with less than 100 nM; and `CN1CCN(CCCOc2ccc(-c3cc4c(ncn4C)c(C#N)n3)cc2C(F)(F)F)CC1` [Example 4e, 1-Methyl-6-{4-[3-(4-methylpiperazin-1-yl)-propoxy]-3-(trifluoromethyl)-phenyl}-1H-imidazo[4,5-c]pyridine-4-carbonitrile], with less than 100 nM.
Take `CCN1CCN(CCCOc2ccc(-c3cc4c(ncn4C)c(C#N)n3)cc2C(F)(F)F)CC1` [Example 4f, 6-{4-[3-(4-Ethylpiperazin-1-yl)-prooxy]-3-(trifluoromethyl)-phenyl}-1-methyl-1H-imidazo[4,5-c]pyridine-4-carbonitrile]: the IC50 is less than 100 nM.
Then `CNC(=O)C1CCN(CCCOc2ccc(-c3cc4c(ncn4C)c(C#N)n3)cc2C(F)(F)F)CC1` [Example 5a, 1-Methyl-6-(4-{3-[4-(N-methylaminocarbonyl)-piperidin-1-yl]-propoxy}-3-(trifluoromethyl)-phenyl)-1H-imidazo[4,5-c]pyridine-4-carbonitrile], with less than 100 nM; and `CCc1nccn1CCCOc1ccc(-c2cc3c(ncn3C)c(C#N)n2)cc1C(F)(F)F` [Example 7b, 6-{4-[3-(2-Ethyl-imidazol-1-yl)-propoxy]-3-(trifluoromethyl)-phenyl}-1-methyl-1H-imidazo[4,5-c]pyridine-4-carbonitrile], with less than 100 nM.
For `C[C@@H]1CN(CCOc2ccc(-c3cc4c(ncn4C)c(C#N)n3)cc2C(F)(F)F)C[C@H](C)N1` [Example 9d, 6-{4-[2-(cis-3,5-dimethyl-piperazin-1-yl)-ethoxy]3-(trifluoromethyl)-phenyl}-1-methyl-1H-imidazo[4,5-c]pyridine-4-carbonitrile] the value was less than 100 nM; for `CN1CCC2(CC1)NC(=O)N(CCOc1ccc(-c3cc4c(ncn4C)c(C#N)n3)cc1C(F)(F)F)C2=O` [Example 11, 1-Methyl-6-{4-[2-(8-methyl-2,4-dioxo-1,3,8-triaza-spiro[4.5]dec-3-yl)-ethoxy]-3-(trifluoromethyl)-phenyl}-1H-imidazo[4,5-c]pyridine-4-carbonitrile], less than 100 nM; for `Cn1cnc2c(C#N)nc(-c3ccc(OCCN4C(=O)NC5(CCNCC5)C4=O)c(C(F)(F)F)c3)cc21` [Example 12, 6-(4-[2-(2,4-Dioxo-1,3,8-triaza-spiro[4.5]dec-3-yl)-ethoxy]-3-(trifluoromethyl)-phenyl]-1-methyl-1H-imidazo[4,5-c]pyridine-4-carbonitrile], less than 100 nM.
Then `Cn1cnc2c(C#N)nc(-c3ccc(OCc4ccccn4)c(C(F)(F)F)c3)cc21` [Example 13c, 1-Methyl-6-[4-(pyridin-2-yl-methoxy)-3-(trifluoromethyl)-phenyl]-1H-imidazo[4,5-c]pyridine-4-carbonitrile], with less than 100 nM; and `CCN1CCN(CCCOc2ccc(-c3cc4[nH]cnc4c(C#N)n3)cc2C(F)(F)F)CC1` [Example 20f], with less than 100 nM.

These data come from US7932251B2, “6-phenyl-1H-imidazo[4,5-c]pyridine-4-carbonitrile derivatives” (priority 2007, dated 2011).
